Measured values published in article PMC8661032, “Broad-Spectrum Antibacterial Peptide Kills Extracellular and Intracellular Bacteria Without Affecting Epithelialization” (Frontiers in Microbiology, 2021).
≈ marks a conversion by molar mass, not a printed value. Read-outs that look alike come from different tables or passages of the source. Values belong to the compound of their own block, whether it stands above or below them. Residues, ends and D or L forms follow the SMILES beside them.

Assays:
A. baumannii = experiment: microbe, parasite or virus in culture; details: for MIC: Acinetobacter baumannii
Procedure: (§1) Briefly, bacterial colonies from blood agar plates were suspended and grown in Cation-Adjusted Mueller-Hinton Broth (CAMHB, […] Ca^2+, […] Mg^2+). The bacterial suspension was adjusted to 0.5 McFarland standard (∼1 × 10^8 colony-forming units (CFU)/ml) and serial diluted 1:200 in CAMHB (∼5 × 10^5 CFU/mL). […] The suspension was plated out on blood agar plates to confirm the CFU/ml. Both the microtiter plates and the blood agar plates were incubated at 37°C for 24 h.

E. cloacae = experiment: microbe, parasite or virus in culture; details: Enterobacter cloacae, 24 h
Procedure: as §1

E. coli [1] = experiment: microbe, parasite or virus in culture; details: for MIC: Escherichia coli
Procedure: as §1

K. pneumoniae = experiment: microbe, parasite or virus in culture; details: for MIC: Klebsiella pneumoniae
Procedure: as §1

P. aeruginosa = experiment: microbe, parasite or virus in culture; details: for MIC: Pseudomonas aeruginosa
Procedure: as §1

S. aureus = experiment: microbe, parasite or virus in culture; details: Staphylococcus aureus
Procedure: as §1

[2] = test system: S. aureus ATCC 29213 and SO-SAU19-1; assay type: cell-based, Staphylococcus aureus
Description: (§2) Bacteria (E. coli K-12 MG1655 and S. aureus ATCC 29213 and SO-SAU19-1) were serial passaged in CAMHB as described by [Silverman et al. (2001)] with some small modifications.

[3] = test system: S. epidermidis MRSE (SO-SEP9-1); details: SO-SEP9-1, 24 h
Procedure: as §1

E. coli [4] = experiment: Growth inhibition assay (OD600 over 24 h); assay type: cell-based, Escherichia coli; set-up: Reduction of viability E. coli (60 μg/ml): key to the marks not given beside the values; details: 60 μg/ml peptide, LB medium, OD600 every hour over 24 h, relative to untreated control
Procedure: An overnight culture of Escherichia coli was diluted 1:100 in Luria-Bertani (LB) medium and allowed to grow until an optical density (OD) at 600 nm (OD600) of 0.06–0.1. APIM-peptides were prepared by serial dilution in Milli-Q H2O and kept at 4°C. Fresh LB medium (60 μl) was added to a flat-bottom microtiter plate. The bacterial suspension was diluted 1:100 in LB, and 75 μl of this suspension was added to the wells. Finally, 15 μl of APIM-peptide solution (to final concentrations 60, 120, and 240 μg/ml) or distilled water (positive control) was added to the wells, reaching a total volume of 150 μl per well. Data are presented only for the dose that separated the effect of the different peptides, i.e., 60 μg/ml. A blank sterile medium was used as negative control. The plates were incubated with shaking at 510 rpm at 37°C inside a plate reader (TECAN, Spark®), and OD was read every hour over a period of 24 h.
The MIC for E. coli in LB medium is higher than that in CAMHB; thus, concentrations higher than the MIC given in Table 2 are used in the growth inhibition and mutagenesis assays. […]
E. coli. Growth of E. coli in LB medium over 24 hours (Optical Density (OD) 600 nm) after addition
of APIM-peptide variants 1-5 (60 µg/mL) at time t=0 (see Table 2). Negative (-) control is no
bacteria added, positive (+) control is untreated bacteria.
highest inhibition of growth.
control (black filled line).

HEK293 cells = test system: HEK293 cells
Procedure: HEK293 cells (6,000 cells/well) were seeded in 96-well microtiter plates. After 4 h, APIM-peptides (12–48 μg/ml) were added, and the cells were incubated without change of media for up to 4 days. Viability was measured using the 3-(4,5-dimethylthiazol-2-yl)-2,5-diphenyltetrazolium bromide (MTT) assay as described ([Gilljam et al., 2009]).
(1 picture or pasted object on this page, not shown here)

E. coli [5] = experiment: Rifampicin (RifR) mutagenesis assay after UV-C; assay type: cell-based, Escherichia coli
Procedure: The rifampicin (Rif^R) mutagenesis assay was performed as described ([Nedal et al., 2020]). Briefly, an overnight culture of E. coli was diluted 1:1,000 and grown until an OD600 of 0.01. APIM-peptides (20 μg/ml) were added to LB media with glass beads (for uniform distribution of APIM-peptides) and incubated for 30 min at 37°C. The pellets were next collected, resuspended in 500 μl PBS, and exposed to UV-C (20 mJ/cm^2) in a six-well plate at 4°C. The unexposed bacteria (-UV) were otherwise handled exactly like the UV-exposed bacteria. Next, the cells were resuspended in LB media and incubated in a rotary shaker at 37°C at 250 rpm for 2 h before being harvested, diluted, and plated on LB with soft agar with and without rifampicin (100 μg/ml). Mutation frequency, Rif^R/10^8, is obtained as follows: (number of colonies on the rifampicin plate (Rif^R)/(number of colonies on LB plates without antibiotics), per milliliter of bacterial suspension. […]
mutagenesis in E. coli more efficiently than the other peptide variants.
Increase in mutation frequencies after treatment with UV-C (20 mJ/cm2) relative to spontaneous mutations frequencies using the RifR assay were determined. This increase is set to 100% for untreated control, and % reduction after addition of peptides 1-5 (20 μg/mL) are shown. Mean ± SD from three independent experiments. * p<0.05, ** p<0.005

E. faecium = experiment: microbe, parasite or virus in culture; details: for MIC: Enterococcus faecium
Procedure: as §1

E. coli K-12 MG1655 = experiment: Resistance development assay (serial passage), E. coli; assay type: cell-based, Escherichia coli; details: serial passage at sub-MIC in CAMHB, 32 days
Description: as §2

E. faecalis = experiment: microbe, parasite or virus in culture; details: for MIC: Enterococcus faecalis
Procedure: as §1

[6] = SO-PAE19-1 (multidrug resistant)

SMILES: CNC(C)C1CCC(N)C(OC2C(N)CC(N)C(OC3OCC(C)(O)C(NC)C3O)C2O)O1 (stereo not drawn) [Gentamicin, gentamicin]
- Combination effect with 0.5× MIC betatide (A. baumannii; ATCC 19606): None
- MIC (A. baumannii; 24 h): > 1000 µg/mL
- MIC (A. baumannii; ATCC19606, 24 h): 8 µg/mL (≈ 16.8 µM)
- MIC (E. cloacae): > 1000 µg/mL
- MIC (E. coli [1]; 24 h): > 500 µg/mL
- MIC (E. coli [1]; MG1655, 24 h): 0.5 µg/mL (≈ 1.05 µM)
- Combination effect with 0.5× MIC betatide (E. coli [1]; MG1655): None
- Combination effect with 0.5× MIC betatide (K. pneumoniae; ATCC 13883): Additive 4×
- MIC (K. pneumoniae; 24 h): 64 µg/mL (≈ 134 µM)
- MIC (K. pneumoniae; ATCC13883, 24 h): 0.5 µg/mL (≈ 1.05 µM)
- Combination effect with 0.5× MIC betatide (K. pneumoniae; SO-KPN19-1 (ESBL-CARBA-D)): Additive 4×
- Combination effect with 0.5× MIC betatide (P. aeruginosa; ATCC 27853): None
- MIC (P. aeruginosa; 24 h): 16 µg/mL (≈ 33.5 µM)
- MIC (P. aeruginosa; ATCC27853, 24 h): 2 µg/mL (≈ 4.19 µM)
- Combination effect with 0.5× MIC betatide (P. aeruginosa; [6]): None
- MIC (S. aureus; ATCC29213, read-out: MIC in S. aureus ATCC 29213, ATCC 29213, values given in method text): 1 µg/mL (≈ 2.09 µM)
- MIC (S. aureus; ATCC29213, read-out: MIC in S. aureus, starting MIC of resistance development assay, CAMHB, strain not differentiated (ATCC 29213 and SO-SAU19-1)): 1 µg/mL
- increase in MIC relative to day 1 ([2]; S. aureus ATCC 29213, serial passage, first experiment (parallel 1)): ≤ 256 ×
- increase in MIC relative to day 1 ([2]; S. aureus SO-SAU19-1 (MRSA), 20 passages): 8 ×

- MIC (E. cloacae): > 1020 µg/mL
- Combination effect with 0.5× MIC betatide (K. pneumoniae; ATCC 13883): Additive 2×
- MIC (K. pneumoniae; 24 h): 2050 µg/mL (≈ 4500 µM)
- MIC (K. pneumoniae; ATCC13883, 24 h): 0.13 µg/mL (≈ 0.285 µM)
- Combination effect with 0.5× MIC betatide (K. pneumoniae; SO-KPN19-1 (ESBL-CARBA-D)): None
SMILES: CO/N=C(\C(=O)N[C@@H]1C(=O)N2C(C(=O)O)=C(COC(C)=O)CS[C@H]12)c1csc(N)n1 [Cefotaxime, cefotaxime]

SMILES: CC[C@H](C)[C@H](NC(=O)CNC(=O)[C@H](CCCCN)NC(=O)[C@@H](NC(=O)[C@H](CC(C)C)NC(=O)[C@H](Cc1c[nH]c2ccccc12)NC(=O)[C@H](CCCNC(=N)N)NC(=O)[C@H](CC(=O)O)NC(=O)[C@H](CCSC)NC(C)=O)C(C)C)C(=O)N[C@@H](CC(C)C)C(=O)N[C@@H](CCC(N)=O)C(=O)N[C@@H](Cc1c[nH]c2ccccc12)C(=O)N[C@@H](CCCNC(=N)N)C(=O)N[C@@H](CCCCN)C(=O)N[C@H](C(=O)N[C@@H](CCCNC(=N)N)C(=O)N[C@@H](CCCNC(=N)N)C(=O)N[C@@H](CCCNC(=N)N)C(=O)N[C@@H](CCCNC(=N)N)C(=O)N[C@@H](CCCNC(=N)N)C(=O)N[C@@H](CCCNC(=N)N)C(=O)N[C@@H](CCCNC(=N)N)C(=O)N[C@@H](CCCNC(=N)N)C(N)=O)[C@@H](C)CC [Peptide 5] (Ac-MDRWLVKGILQWRKIRRRRRRRR-NH2)
- MIC S. epidermidis MRSE [3]: 16 µg/mL (≈ 4.95 µM)
- Reduction of viability E. coli (60 μg/ml) (E. coli [4]): ++
- Reduction of viability HEK293 (24 μg/ml) (HEK293 cells): +
- UV-induced mutation frequencies relative to control (E. coli [5]; 20 μg/mL, UV-C 20 mJ/cm2, RifR assay, three independent experiments): significantly reduced
- Reduction of mutation frequency E. coli (20 μg/ml) (E. coli [5]; 20 μg/ml peptide, UV-C 20 mJ/cm^2, RifR assay, relative to untreated control): ++
- MIC E. coli (E. coli [1]; K-12 MG1655, CLSI broth microdilution, CAMHB, 37°C, 24 h, visible growth, net peptide concentration): 16 µg/mL (≈ 4.95 µM)

SMILES: CC1(C)S[C@@H]2[C@H](NC(=O)[C@H](N)c3ccccc3)C(=O)N2[C@H]1C(=O)O [Ampicillin, ampicillin]
- MIC (E. coli [1]; MG1655, read-out: MIC in E. coli): 16 µg/mL (≈ 45.8 µM)
- Combination effect with 0.5× MIC betatide (E. faecium; CCUG 59167 (vanA+), reduced MIC of antibiotic when combined with 0.5× MIC betatide): None
- MIC (E. faecium; 24 h): 2050 µg/mL (≈ 5860 µM)
- MIC (E. faecium; CCUG59167, 24 h): 1 µg/mL (≈ 2.86 µM)
- Combination effect with 0.5× MIC betatide (E. faecium; SO-EFU19-1 (vanB+)): None
- increase in MIC relative to day 1 (E. coli K-12 MG1655): ≤ 64 ×

SMILES: CC(C)(O/N=C(\C(=O)N[C@@H]1C(=O)N2C(C(=O)[O-])=C(C[n+]3ccccc3)CS[C@H]12)c1csc(N)n1)C(=O)O [Ceftazidime, ceftazidime]
- MIC (E. cloacae): > 1000 µg/mL
- Combination effect with 0.5× MIC betatide (P. aeruginosa; ATCC 27853): None
- MIC (P. aeruginosa; 24 h): 128 µg/mL (≈ 234 µM)
- MIC (P. aeruginosa; ATCC27853, 24 h): 2 µg/mL (≈ 3.66 µM)
- Combination effect with 0.5× MIC betatide (P. aeruginosa; [6]): None

- Combination effect with 0.5× MIC betatide (E. faecalis; ATCC 29212): None
- MIC (E. faecalis; 24 h): 8 µg/mL (≈ 23.7 µM)
- MIC (E. faecalis; ATCC29212, 24 h): 2 µg/mL (≈ 5.93 µM)
- Combination effect with 0.5× MIC betatide (E. faecalis; SO-EFA19-1 (optrA+)): None
SMILES: CC(=O)NC[C@H]1CN(c2ccc(N3CCOCC3)c(F)c2)C(=O)O1 [Linezolid, linezolid]
